Converted amounts (≈) assume the structure as drawn. Where two headings read alike, the source gives them in different places.
Tested on: C. auris strain AR Bank #390 (L)
Test: MIC determination by in vitro antifungal assay
Assay type: cell-based, Candida auris
Method: The antifungal agent amphotericin B (AmB) was purchased from VWR (Radnor PA, USA). AmB was dissolved in DMSO at a final concentration of 5 mg/mL and was stored at −20° C., protected from light. Candida albicans American Type Culture Collection (ATCC) 10231 (strain A), C. albicans ATCC 64124 (B), and C. albicans ATCC MYA-2876 (C) were obtained from Utah State University. C. albicans ATCC 90819 (D), C. albicans ATCC MYA-2310 (E), C. albicans ATCC MYA-1237 (F), C. albicans ATCC MYA-1003 (G), Candida glabrata ATCC 2001 (H), Candida krusei ATCC 6258 (I), Candida parapsilosis ATCC 22019 (J), Cryptococcus neoformans ATCC MYA-895 (M), Aspergillus terreus ATCC MYA-3633 (N), and Aspergillus flavus ATCC MYA-3631 (0) were obtained from the American Type Culture Collection (ATCC; Manassas, VA, USA). Aspergillus nidulans ATCC 38163 (P) was obtained from University of Kentucky. Clinically derived Aspergillus fumigatus NRRL 163 (Q), A. fumigatus NRRL 5109 (R), and A. fumigatus NRRL 6113 (S) were obtained from Northern Regional Research Laboratory (NRRL). Candida auris 384 (K), C. auris 390 (L), and fungal strains 381-400 (including 10 C. auris (AR Bank #381-390), 3 Candida duobushaemulonii (AR Bank #391, AR Bank #392, and AR Bank #394), 2 Candida haemulonii (AR Bank #393 and AR Bank #395), 1 Kodameae ohmeri (AR Bank #396), 1 C. krusei (AR Bank #397), 1 Candida lusitaniae (AR Bank #398), and 2 Saccharomyces cerevisiae strains (AR Bank #399 and AR Bank #400)) were part of a larger fungal library from the AR Bank maintained by the Centers for Disease Control and Prevention (CDC; Atlanta, GA, USA). Filamentous fungi and yeasts were cultivated at 35° C. in RPMI 1640 medium (with L-glutamine, without sodium bicarbonate, Sigma-Aldrich, St. Louis, MO) buffered to a pH of 7.0 with 0.165 M morpholinepropanesulfonic acid (MOPS) buffer (Sigma-Aldrich). For cytotoxicity assays, HepG2 and the mouse macrophage cell line J774A.1 were obtained from University of Kentucky. The human embryonic kidney cell line, HEK-293, was bought from the ATCC. Mammalian cells were grown in Dulbecco's Modified Eagle's Medium (DMEM) (from VWR) with 10% fetal bovine serum (FBS) (from VWR) and 1% Pen/Strep (from ATCC). Cell lines were cultured at 37° C. with 5% CO2 and passaged by trypsinization with 0.05% trypsin: 0.53 mM EDTA (from Sigma-Aldrich).
From the actively growing yeast culture, 100 µL were then transferred to 900 μL of RPMI 1640 medium and re-adjusted to achieve OD600 of 0.12 (˜1×10^6 CFU/mL). The cell suspension was further diluted to achieve 1:100 in RPMI 1640 medium.
Finally, the activity of these monohydrazides was explored against […] non-Candida strains: Cryptococcus neoformans ATCC MYA-895 (M), Aspergillus terreus ATCC MYA-3633 (N), Aspergillus flavus ATCC MYA-3631 (O), Aspergillus nidulans ATCC 38163 (P), Aspergillus fumigatus NRRL 163 (Q), A. fumigatus NRRL 5109 (R), and A. fumigatus NRRL 6113 (S) (Tables 1A and 1B). The double dilution method was used with concentrations ranging from 0.06 to 31.3 j·tg mL^−1 for monohydrazides 1a-9j, and the commercially available positive antifungal control amphotericin B (AmB).

[1] = C. auris AR Bank # 390 (L) (Table 2B)
[2] = strain L = C. auris AR Bank # 0390 (Tables 1A/1B)
[3] = Candidozyma auris, C. auris AR Bank # 390 (L) (Table 2B), read-out: MIC
[4] = Candidozyma auris, strain L = C. auris AR Bank # 0390 (Tables 1A/1B), read-out: MIC
[5] = Candidozyma auris, C. auris AR Bank #390 (L), read-out: MIC

Row | Structure (SMILES) | MIC [2] | MIC [4] | also measured
1 | C[C@@H]1[C@H](O)[C@@H](C)/C=C/C=C/C=C/C=C/C=C/C=C/C=C/[C@H](O[C@@H]2O[C@H](C)[C@@H](O)[C@H](N)[C@@H]2O)C[C@@H]2O[C@](O)(C[C@@H](O)C[C@@H](O)[C@H](O)CC[C@@H](O)C[C@@H](O)CC(=O)O[C@H]1C)C[C@H](O)[C@H]2C(=O)O [AmB, amphotericin B, reference compound] | 1.95 μg/mL^−1 |  | MIC (C. auris AR Bank #390 (L)): 1.95 μg/mL^−1; MIC [1]: 1.95 μg/mL^−1
2 | O=C(NNc1cccc(F)c1)c1ccc(F)cc1F [Compound 1a] | 0.24 μg/mL^−1 |  | 
3 | O=C(NNc1cccc(Cl)c1)c1ccc(F)cc1F [Compound 1b] |  | 7.8 µg/mL (≈ 27.6 µM) | MIC [3]: 7.8 µg/mL (≈ 27.6 µM)
4 | COc1cccc(NNC(=O)c2ccc(F)cc2F)c1 [Compound 1c] |  | 1.95 µg/mL (≈ 7.01 µM) | 
5 | O=C(NNc1ccc(F)cc1)c1ccc(F)cc1F [Compound 1d] |  | 1.95 µg/mL (≈ 7.32 µM) | 
6 | O=C(NNc1ccc(Cl)cc1)c1ccc(F)cc1F [Compound 1e] | >31.3 μg/mL^−1 |  | 
7 | COc1ccc(NNC(=O)c2ccc(F)cc2F)cc1 [Compound 1f] |  | 1.95 µg/mL (≈ 7.01 µM) | 
8 | O=C(NNc1ccc(F)cc1F)c1ccc(F)cc1F [Compound 1g] |  | 7.8 µg/mL (≈ 27.4 µM) | 
9 | O=C(NNc1cc(F)ccc1F)c1ccc(F)cc1F [Compound 1h] |  | 15.6 µg/mL (≈ 54.9 µM) | 
10 | O=C(NNc1cc(F)cc(F)c1)c1ccc(F)cc1F [Compound 1i] |  | 15.6 µg/mL (≈ 54.9 µM) | 
11 | O=C(NNc1cc(Cl)cc(Cl)c1)c1ccc(F)cc1F [Compound 1j] |  | > 31.3 µg/mL | MIC [3]: > 31.3 µg/mL
12 | O=C(NNc1cccc(F)c1)c1ccccn1 [Compound 2a] | 0.33 μg/mL^−1 |  | MIC (C. auris AR Bank #390 (L)): 0.24 μg/mL^−1
13 | O=C(NNc1cccc(Cl)c1)c1ccccn1 [Compound 2b] | 0.98 μg/mL^−1 |  | MIC (C. auris AR Bank #390 (L)): 0.49 μg/mL^−1
14 | COc1cccc(NNC(=O)c2ccccn2)c1 [Compound 2c] | 0.98 μg/mL^−1 |  | MIC (C. auris AR Bank #390 (L)): 0.98 μg/mL^−1
15 | O=C(NNc1ccc(F)cc1)c1ccccn1 [Compound 2d] |  | 0.98 µg/mL (≈ 4.24 µM) | MIC [5]: 0.98 µg/mL (≈ 4.24 µM)
16 | O=C(NNc1ccc(Cl)cc1)c1ccccn1 [Compound 2e] | 1.95 μg/mL^−1 |  | MIC (C. auris AR Bank #390 (L)): 1.95 μg/mL^−1
17 | COc1ccc(NNC(=O)c2ccccn2)cc1 [Compound 2f] |  | 0.12 µg/mL (≈ 0.493 µM) | MIC [5]: 0.12 µg/mL (≈ 0.493 µM)
18 | O=C(NNc1ccc(F)cc1F)c1ccccn1 [Compound 2g] |  | 0.12 µg/mL (≈ 0.482 µM) | MIC [5]: 0.12 µg/mL (≈ 0.482 µM)
19 | O=C(NNc1cc(F)ccc1F)c1ccccn1 [Compound 2h] |  | 0.98 µg/mL (≈ 3.93 µM) | MIC [5]: 0.98 µg/mL (≈ 3.93 µM)
20 | O=C(NNc1cc(F)cc(F)c1)c1ccccn1 [Compound 2i] |  | 0.49 µg/mL (≈ 1.97 µM) | MIC [5]: 0.49 µg/mL (≈ 1.97 µM)
21 | O=C(NNc1cc(Cl)cc(Cl)c1)c1ccccn1 [Compound 2j] |  | 1.95 µg/mL (≈ 6.91 µM) | MIC [5]: 3.9 µg/mL (≈ 13.8 µM)

Row | Structure (SMILES) | MIC [2] | MIC [4] | also measured
22 | O=C(NNc1cccc(F)c1)c1ccc(F)cn1 [Compound 3a] | 0.98 μg/mL^−1 |  | 
23 | COc1cccc(NNC(=O)c2ccc(F)cn2)c1 [Compound 3c] | 0.98 μg/mL^−1 |  | MIC [1]: 3.9 μg/mL^−1
24 | O=C(NNc1ccc(F)cc1)c1ccc(F)cn1 [Compound 3d] | 0.98 μg/mL^−1 |  | MIC [1]: 3.9 μg/mL^−1
25 | O=C(NNc1ccc(Cl)cc1)c1ccc(F)cn1 [Compound 3e] | 7.8 μg/mL^−1 |  | MIC [1]: 7.8 μg/mL^−1
26 | COc1ccc(NNC(=O)c2ccc(F)cn2)cc1 [Compound 3f] | 0.49 μg/mL^−1 |  | 
27 | O=C(NNc1ccc(F)cc1F)c1ccc(F)cn1 [Compound 3g] |  | 3.9 µg/mL (≈ 14.6 µM) | MIC [3]: 3.9 µg/mL (≈ 14.6 µM)
28 | O=C(NNc1cccc(F)c1)c1ccc(Br)cn1 [Compound 4a] | 1.95 μg/mL^−1 |  | 
29 | COc1cccc(NNC(=O)c2ccc(Br)cn2)c1 [Compound 4c] |  | 0.98 µg/mL (≈ 3.04 µM) | 
30 | O=C(NNc1ccc(F)cc1)c1ccc(Br)cn1 [Compound 4d] |  | 3.9 µg/mL (≈ 12.6 µM) | MIC [3]: 7.8 µg/mL (≈ 25.2 µM)
31 | COc1ccc(NNC(=O)c2ccc(Br)cn2)cc1 [Compound 4f] |  | 1.95 µg/mL (≈ 6.05 µM) | 
32 | O=C(NNc1ccc(F)cc1F)c1ccc(Br)cn1 [Compound 4g] |  | 31.3 µg/mL (≈ 95.4 µM) | 
33 | O=C(NNc1cccc(F)c1)c1cccc(F)n1 [Compound 5a] | 3.9 μg/mL^−1 |  | 
34 | O=C(NNc1ccc(F)cc1)c1cccc(F)n1 [Compound 5d] |  | 0.98 µg/mL (≈ 3.93 µM) | MIC [3]: 1.95 µg/mL (≈ 7.82 µM)
35 | O=C(NNc1ccc(Cl)cc1)c1cccc(F)n1 [Compound 5e] | 7.8 μg/mL^−1 |  | MIC [1]: 7.8 μg/mL^−1
36 | COc1ccc(NNC(=O)c2cccc(F)n2)cc1 [Compound 5f] |  | 1.95 µg/mL (≈ 7.46 µM) | 
37 | O=C(NNc1ccc(F)cc1F)c1cccc(F)n1 [Compound 5g] |  | 3.9 µg/mL (≈ 14.6 µM) | MIC [3]: 3.9 µg/mL (≈ 14.6 µM)
38 | O=C(NNc1cccc(F)c1)c1cccc(Br)n1 [Compound 6a] | 1.95 μg/mL^−1 |  | 
39 | O=C(NNc1ccc(F)cc1)c1cccc(Br)n1 [Compound 6d] |  | 0.98 µg/mL (≈ 3.16 µM) | MIC [3]: 3.9 µg/mL (≈ 12.6 µM)
40 | COc1ccc(NNC(=O)c2cccc(Br)n2)cc1 [Compound 6f] |  | 1.95 µg/mL (≈ 6.05 µM) | 
41 | O=C(NNc1cccc(F)c1)c1ncc(F)cc1F [Compound 7a] | 1.95 μg/mL^−1 |  | 
42 | COc1cccc(NNC(=O)c2ncc(F)cc2F)c1 [Compound 7c] |  | 15.6 µg/mL (≈ 55.9 µM) | 

Row | Structure (SMILES) | MIC [2] | MIC [4] | also measured
43 | O=C(NNc1ccc(F)cc1)c1ncc(F)cc1F [Compound 7d] |  | 0.98 µg/mL (≈ 3.67 µM) | MIC [3]: 3.9 µg/mL (≈ 14.6 µM)
44 | O=C(NNc1ccc(Cl)cc1)c1ncc(F)cc1F [Compound 7e] | 7.8 μg/mL^−1 |  | MIC [1]: 7.8 μg/mL^−1
45 | COc1ccc(NNC(=O)c2ncc(F)cc2F)cc1 [Compound 7f] |  | 0.98 µg/mL (≈ 3.51 µM) | MIC [3]: 31.3 µg/mL (≈ 112 µM)
46 | O=C(NNc1ccc(F)cc1F)c1ncc(F)cc1F [Compound 7g] |  | 1.95 µg/mL (≈ 6.84 µM) | MIC [3]: 7.8 µg/mL (≈ 27.3 µM)
47 | O=C(NNc1cccc(F)c1)c1nc(F)ccc1F [Compound 8a] | 1.95 μg/mL^−1 |  | 
48 | COc1cccc(NNC(=O)c2nc(F)ccc2F)c1 [Compound 8c] |  | 15.6 µg/mL (≈ 55.9 µM) | 
49 | O=C(NNc1ccc(F)cc1)c1nc(F)ccc1F [Compound 8d] |  | 0.98 µg/mL (≈ 3.67 µM) | MIC [3]: 1.95 µg/mL (≈ 7.3 µM)
50 | O=C(NNc1ccc(Cl)cc1)c1nc(F)ccc1F [Compound 8e] | 7.8 μg/mL^−1 |  | MIC [1]: 7.8 μg/mL^−1
51 | COc1ccc(NNC(=O)c2nc(F)ccc2F)cc1 [Compound 8f] |  | 0.98 µg/mL (≈ 3.51 µM) | MIC [3]: 31.3 µg/mL (≈ 112 µM)
52 | O=C(NNc1ccc(F)cc1F)c1nc(F)ccc1F [Compound 8g] |  | 1.95 µg/mL (≈ 6.84 µM) | MIC [3]: 31.3 µg/mL (≈ 110 µM)
53 | O=C(NNc1cccc(F)c1)c1cnccn1 [Compound 9a] | 0.98 μg/mL^−1 |  | 
54 | O=C(NNc1cccc(Cl)c1)c1cnccn1 [Compound 9b] |  | 0.98 µg/mL (≈ 3.94 µM) | MIC [5]: 0.49 µg/mL (≈ 1.97 µM)
55 | COc1cccc(NNC(=O)c2cnccn2)c1 [Compound 9c] |  | 0.98 µg/mL (≈ 4.01 µM) | MIC [5]: 0.98 µg/mL (≈ 4.01 µM)
56 | O=C(NNc1ccc(F)cc1)c1cnccn1 [Compound 9d] |  | 0.98 µg/mL (≈ 4.22 µM) | 
57 | O=C(NNc1ccc(Cl)cc1)c1cnccn1 [Compound 9e] | 3.9 μg/mL^−1 |  | MIC (C. auris AR Bank #390 (L)): 3.9 μg/mL^−1
58 | COc1ccc(NNC(=O)c2cnccn2)cc1 [Compound 9f] |  | 0.49 µg/mL (≈ 2.01 µM) | MIC [5]: 0.98 µg/mL (≈ 4.01 µM)
59 | O=C(NNc1ccc(F)cc1F)c1cnccn1 [Compound 9g] |  | 0.98 µg/mL (≈ 3.92 µM) | MIC [5]: 0.98 µg/mL (≈ 3.92 µM)
60 | O=C(NNc1cc(F)ccc1F)c1cnccn1 [Compound 9h] |  | 1.95 µg/mL (≈ 7.79 µM) | 
61 | O=C(NNc1cc(F)cc(F)c1)c1cnccn1 [Compound 9i] |  | 1.95 µg/mL (≈ 7.79 µM) | 
62 | O=C(NNc1cc(Cl)cc(Cl)c1)c1cnccn1 [Compound 9j] |  | 7.8 µg/mL (≈ 27.6 µM) | 
